Experiments:
SV40-Luc = SV40-Luc control luciferase reporter assay, SV 5A8 cell line (SV40-Luc and SV40-R-Luc), control for non-specific inhibitors; assay type: cell-based, human; conditions: SV 5A8 cells derived from SW480, 24 hours of incubation with compound, ratio Firefly/Renilla luciferase
Summary of the method: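 Cells were plated and, 20-24 hours later, treated with titrated compound (0.316% DMSO final). After 24 hours they were lysed or given Dual-Glo reagent, and firefly then Renilla luminescence was measured. IC50s came from firefly/Renilla ratios as % of control.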

β-catenin/Tcf-4 = assay: cells; assay type: cell-based; conditions: 24 hours of incubation with compound, ratio Firefly/Renilla luciferase
Summary of the method: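 SW480-derived lines with integrated reporters (Tcf-4-driven firefly luciferase; SV40 firefly as specificity control; SV40 Renilla for cell number/toxicity), treated 24 hours with titrated compounds, final 0.316% DMSO. Dual-luciferase read-out; firefly/Renilla ratio as % of control, duplicate plates, IC50 (nM) from curve fit.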

[1] = Homo sapiens, SW480, 24 h, Tcf 33.13 cells derived from SW480
[2] = Homo sapiens, Tcf22C11, 24 h, Tcf 22C11 cells derived from SW480
[3] = Tcf 22C11 cells derived from SW480
[4] = Tcf 33.13 cells derived from SW480

| Molecule | IC50 (SV40-Luc; Homo sapiens, SV5A8, 24 h) [nM] | IC50 (β-catenin/Tcf-4; [1]) [nM] | IC50 (β-catenin/Tcf-4; [2]) [nM] | IC50 (SV40-Luc) [nM] | IC50 (β-catenin/Tcf-4; [3]) [nM] | IC50 (β-catenin/Tcf-4; [4]) [nM] |
| --- | --- | --- | --- | --- | --- | --- |
| Cc1ccc2c(NCc3ccc(NC(=O)C4CCN(Cc5ccccc5)CC4)cc3)nc(N3CCN(c4ncccn4)CC3)nc2c1 [Example 136, 1-benzyl-N-[4-({[7-methyl-2-(4-pyrimidin-2-ylpiperazin-1-yl)quinazolin-4-yl]amino}methyl)phenyl]piperidine-4-carboxamide] | > 15900 | 365 | 494 |  |  |  |
| Cc1ccc2c(NCc3ccc(NC(=O)C4CCN(Cc5ccccc5)CC4)cc3)nc(N(C)CCCN(C)C)nc2c1 [Example 140, 1-benzyl-N-{4-[({2-[[3-(dimethylamino)propyl](methyl)amino]-7-methylquinazolin-4-yl}amino)methyl]phenyl}-piperidine-4-carboxamide] | > 8620 | 1320 | 1420 |  |  |  |
| Cc1ccc2nc(N3CCC3)nc(NCc3ccc(NC(=O)C4CCN(Cc5ccccc5)CC4)cc3)c2c1 [Example 84, N-(4-{[(2-azetidin-1-yl-6-methylquinazolin-4-yl)amino]methyl}phenyl)-1-benzylpiperidine-4-carboxamide] | > 9310 | 423 | 434 |  |  |  |
| CNc1nc(NCc2ccc(NC(=O)c3ccc(OC(F)(F)F)cc3)cc2)c2ccccc2n1 [Example 22, N-[4-({[2-(methylamino)quinazolin-4-yl]amino}methyl)phenyl]-4-(trifluoromethoxy)benzamide] | > 2670 | 1230 | 1380 |  |  |  |
| CN1CCN(c2nc(NCc3ccc(NC(=O)c4ccc(F)cc4)cc3)c3ccccc3n2)CC1 [Example 116, 4-fluoro-N-[4-({[2-(4-methylpiperazin-1-yl)quinazolin-4-yl]amino}methyl)phenyl]benzamide] | > 21300 | 3040 | 3440 |  |  |  |
| Cc1ccc2c(NCc3ccc(NC(=O)C4CCN(Cc5ccccc5)CC4)cc3)nc(N(C)Cc3ccccc3)nc2c1 [Example 142, 1-benzyl-N-{4-[({2-[benzyl(methyl)amino]-7-methylquinazolin-4-yl}amino)methyl]phenyl}-piperidine-4-carboxamide] | > 4280 | 677 | 573 |  |  |  |
| N-{4-[({6,8-dimethyl-2-[(3S)-3-methylpiperazin-1-yl]quinazolin-4-yl}amino)methyl]phenyl}-4-fluorobenzamide [Example 50] |  |  |  | > 5010 | > 1250 | 1490 |
| C=Cc1ccc2nc(N(C)C)nc(NCc3ccc(NC(=O)C4CCN(Cc5ccccc5)CC4)cc3)c2c1 [Example 75, 1-benzyl-N-[4-({[2-(dimethylamino)-6-vinylquinazolin-4-yl]amino}methyl)phenyl]-piperidine-4-carboxamide] | > 4490 | 287 | 437 |  |  |  |
| O=C(Nc1ccc(CNc2nc(NC3CCC3)nc3ccc(C(F)(F)F)cc23)cc1)c1ccc(Cl)cc1 [Example 166, 4-chloro-N-[4-({[2-(cyclobutylamino)-6-(trifluoromethyl)quinazolin-4-yl]amino}methyl)phenyl]benzamide] | > 9510 | > 9510 | > 9510 |  |  |  |
| C=Cc1ccc2nc(N(C)C)nc(NCc3ccc(NC(=O)c4ccc(Cl)nc4)cc3)c2c1 [Example 73, 6-chloro-N-[4-({[2-(dimethylamino)-6-vinylquinazolin-4-yl]amino}methyl)phenyl]nicotinamide] | > 681 | 194 | 223 |  |  |  |
| Cc1ccc2nc(N3CCC(N4CCCC4)CC3)nc(NCc3ccc(NC(=O)C4CCN(Cc5ccccc5)CC4)cc3)c2c1 [Example 83, 1-benzyl-N-[4-({[6-methyl-2-(4-pyrrolidin-1-ylpiperidin-1-yl)quinazolin-4-yl]amino}methyl)phenyl]piperidine-4-carboxamide] | > 4050 | 425 | 511 |  |  |  |
| CN(C)c1nc(NCc2ccc(NC(=O)c3ccc(F)cc3)cc2)c2ccc(-c3cc4ccccc4o3)cc2n1 [Example 101, N-[4-({[7-(1-benzofuran-2-yl)-2-(dimethylamino)quinazolin-4-yl]amino}methyl)phenyl]-4-fluorobenzamide] | > 17600 | 2950 | 2250 |  |  |  |
| Cc1cccc2c(NCc3ccc(NC(=O)C4CCN(Cc5ccccc5)CC4)cc3)nc(N(C)C)nc12 [Example 76, 1-benzyl-N-[4-({[2-(dimethylamino)-8-methylquinazolin-4-yl]amino}methyl)phenyl]piperidine-4-carboxamide] | > 9170 | 2150 | 1560 |  |  |  |
| C#Cc1ccc2c(NCc3ccc(NC(=O)c4ccc(F)cc4)cc3)nc(N(C)C)nc2c1 [Example 108, N-[4-({[2-(dimethylamino)-7-ethynylquinazolin-4-yl]amino}methyl)phenyl]-4-fluorobenzamide] | > 5250 | 236 | 508 |  |  |  |
| CN(C)c1nc(NCc2ccc(C(=O)Nc3ccc(F)cc3)cc2)c2cc(-c3ccc(/C=C/c4ccccc4)cc3)ccc2n1 [Example 173] |  |  |  | > 18000 | > 4510 | 4480 |
| Cc1ccc2nc(N3CCNCC3)nc(NCc3ccc(NC(=O)c4ccc(F)cc4)cc3)c2c1 [Example 45] |  |  |  | > 10600 | 1800 | 1480 |
| CC(C)c1ccc2c(NCc3ccc(NC(=O)c4ccc(Cl)nc4)cc3)nc(N(C)C)nc2c1 [Example 62, 6-chloro-N-[4-({[2-(dimethylamino)-7-isopropylquinazolin-4-yl]amino}methyl)phenyl]nicotinamide] | > 9780 | 808 | 1110 |  |  |  |

The remaining lines, values ahead:

| IC50 (SV40-Luc; Homo sapiens, SV5A8, 24 h) [nM] | IC50 (β-catenin/Tcf-4; [1]) [nM] | IC50 (β-catenin/Tcf-4; [2]) [nM] | IC50 (SV40-Luc) [nM] | IC50 (β-catenin/Tcf-4; [3]) [nM] | IC50 (β-catenin/Tcf-4; [4]) [nM] | Molecule |
| --- | --- | --- | --- | --- | --- | --- |
| > 10800 | > 5420 | > 5420 |  |  |  | Cc1ccc2c(NCc3ccc(NC(=O)Nc4ccc(Cl)cc4)cc3)nc(N(C)C)nc2c1 [Example 177, N-(4-chlorophenyl)-N′-[4-({[2-(dimethylamino)-7-methylquinazolin-4-yl]amino}methyl)phenyl]urea] |
| > 8510 | 682 | 1140 |  |  |  | COCCN(C)c1nc(NCc2ccc(NC(=O)c3ccc(F)cc3)cc2)c2ccc(C)cc2n1 [Example 220, 4-fluoro-N-{4-[({2-[(2-methoxyethyl)(methyl)amino]-7-methylquinazolin-4-yl}amino)methyl]phenyl}benzamide] |
| > 2810 | 549 | 719 |  |  |  | Cc1ccc2nc(N(C)C)nc(NCc3ccc(NC(=O)Nc4ccc(F)cc4)cc3)c2c1 [Example 181, N-[4-({[2-(dimethylamino)-6-methylquinazolin-4-yl]amino}methyl)phenyl]-N′-(4-fluorophenyl)urea] |
| > 10000 | 736 | 1150 |  |  |  | CCN1CCN(c2nc(NCc3ccc(NC(=O)c4ccc(F)cc4)cc3)c3ccc(C)cc3n2)CC1 [Example 227, N-[4-({[2-(4-ethylpiperazin-1-yl)-7-methylquinazolin-4-yl]amino}methyl)phenyl]-4-fluorobenzamide] |
| > 10500 | 1170 | 1480 |  |  |  | CCCCN1CCC(C(=O)Nc2ccc(CNc3nc(N(C)C)nc4cc(C)ccc34)cc2)CC1 [Example 249, 1-butyl-N-[4-({[2-(dimethylamino)-7-methylquinazolin-4-yl]amino}methyl)phenyl]piperidine-4-carboxamide] |
| > 4230 | 933 | 1140 |  |  |  | CNc1nc(NCc2ccc(NC(=O)c3ccc(Br)cc3)cc2)c2cccc(C)c2n1 [Example 265, 4-bromo-N-[4-({[8-methyl-2-(methylamino)quinazolin-4-yl]amino}methyl)phenyl]benzamide] |
| > 4660 | 962 | 1100 |  |  |  | CNc1nc(NCc2ccc(NC(=O)c3ccc(C#N)cc3)cc2)c2cccc(C)c2n1 [Example 266, 4-cyano-N-[4-({[8-methyl-2-(methylamino)quinazolin-4-yl]amino}methyl)phenyl]benzamide] |
| > 4590 | 184 | 213 |  |  |  | Cc1ccc2c(NCc3ccc(NC(=O)C4CCN(Cc5cc(F)ccc5F)CC4)cc3)nc(N(C)C)nc2c1 [Example 262, 1-(2,5-difluorobenzyl)-N-[4-({[2-(dimethylamino)-7-methylquinazolin-4-yl]amino}methyl)phenyl]piperidine-4-carboxamide] |
| > 4990 | 664 | 1310 |  |  |  | Cc1ccc2c(NCc3ccc(NC(=O)c4ccc(F)cc4)cc3)nc(N(C)CCCN(C)C)nc2c1 [Example 201, N-{4-[({2-[[3-(dimethylamino)propyl](methyl)amino]-7-methylquinazolin-4-yl}amino)methyl]phenyl}-4-fluorobenzamide] |
| > 9740 | 781 | 1000 |  |  |  | Cc1ccc2c(NCc3ccc(NC(=O)c4ccc(F)cc4)cc3)nc(N3CCCCC3CCO)nc2c1 (stereo not drawn) [Example 224, 4-fluoro-N-{4-[({2-[2-(2-hydroxyethyl)piperidin-1-yl]-7-methylquinazolin-4-yl}amino)methyl]phenyl}benzamide] |
| > 20100 | > 20100 | > 20100 |  |  |  | Cc1ccc2c(NCc3ccc(NC(=O)C4CCN(Cc5ncc[nH]5)CC4)cc3)nc(N(C)C)nc2c1 [Example 248, N-[4-({[2-(dimethylamino)-7-methylquinazolin-4-yl]amino}methyl)phenyl]-1-(1H-imidazol-2-ylmethyl)piperidine-4-carboxamide] |

From patent US20090004185A1, “AMINO-SUBSTITUTED QUINAZOLINE DERIVATIVES AS INHIBITORS OF BETA-CATENIN/TCF-4 PATHWAY AND CANCER TREATMENT AGENTS” (WYETH, priority 2007, published 2009)
